Patent US20260216141A1, “NECROSIS INHIBITOR” (LINKGEVITY LIMITED, priority 2023, published 2026)
Entries after “also recorded” stand apart in the source; their conditions may differ.

Key:
[1] = system: Hepg2s spheroids; format: cell-based
Description: Media changes were on alternative days. […] DMSO controls were added on each plate.
In some of the following Examples, human 3D cell culture was employed using liver Hepg2 cells. 3D cell culture is known to accurately replicate a cell's native environment. During embryonic development, cells aggregate and self-assemble into complex multi-cellular structures. The same aggregation process can likewise occur in in vitro culture systems if cell-cell cohesion is favoured over cell attachment to a substrate. The resulting 3D cell culture aggregates are known as spheroids. […] A standard method of spheroid formation in U-bottom low adhesion plates was used in the Examples herein.
This is because, as the spheroids grow, only the peripheral cells obtain oxygen and nutrients from the cell culture medium. The inner cells die from cell death necrosis, with the formation of large necrotic cores (observable though use of standard live dead stains). Thus, necrotic core formation represents a naturally occurring hypoxic and nutrient stress. This resembles multiple forms of shock in humans where blood flow carrying nutrients and oxygen is disrupted to certain cells, tissues and/or organs.

[2] = system: C. elegans; test: C. elegans survival after cold, heat, oxidative and toxin stress; format: in vivo, Caenorhabditis elegans; details: EGTA 2500 μM in liposomes, 3 hrs prior to stress or 3 hrs post stress
Description: C. elegans was maintained on nematode growth medium (NGM) agar plates seeded with Escherichia coli OP50, using standard culture methodologies (S. Brenner, 1974). A C. elegans (N2H) hermaphrodite stock was used as wild-type. Day 1 hermaphrodites were used in experiments and all maintenance and trials were conducted at 20° C. unless otherwise stated.
Per trial, 100 animals were placed in 1.5 ml Eppendorf tubes ([…]) containing 100 μl M9 buffer, and then transferred to a −80° C. incubator for 1.5 min. Following the stress, animals were transferred to a 20° C. incubator and maintained as usual on OP50 NGM plates. • Heat stress
Per trial, 100 animals were placed in a 37° C. incubator for 4.5 hrs on NGM plates. Following the stress, animals were transferred to a 20° C. incubator and maintained as usual on OP50 NGM plates. • Oxidative stress
Per trial, 100 animals were transferred into 1.5 ml Eppendorf tubes (20 animals per tube) containing 300 μL of 2M hydrogen peroxide for 5 min. Following the stress, animals were transferred to a 20° C. incubator and maintained as usual on OP50 NGM plates. • Toxin stress
Per trial, 100 animals were transferred into 1.5 ml Eppendorf tubes (20 animals per tube) containing 300 μL of 1.3% (v/v) tert-butylhydroperoxide (tBOOH) for 5 min. […]
Next the model Caenorhabditis elegans was used and animal survival following stress was scored. […]

[3] = system: C. elegans; test: C. elegans movement analysis post stress; format: in vivo, Caenorhabditis elegans; details: EGTA 2500 μM in liposomes 3 hrs prior stress; cold, heat, oxidative and toxin stress
Excerpt: Movement was scored according to an adapted methodology (from Herndon et al., 2002). Briefly, animals were marked as either: normal movement; or defective movement. Defective movement was defined as worms that are stationary unless touched with a pick, in which case they may only move a few […] forward before stopping again or they may not move at all. 100 animals were used per trial and the percentage of worms with defective movement was scored.
According to the protocol in Shibamura et al., 2009, drug was dissolved in MilliQ water and encapsulated in liposomes. Drug used was EGTA, at a final concentration of 2500 μM. Briefly, L-a-phosphatidylcholine (LαPC) was used to prepare liposomes by first dissolving LαPC in distilled water at the concentration of 96 mg/ml. A ×2 concentration of drug solution was mixed with LαPC to a 1:1 ratio and heated to 65° C. Drug-LαPC solution was then converted into liposomes using a mini-Avanti extruder a 100 nm pore size polycarbonate membrane. MilliQ water encapsulated in liposomes was used a as the empty vector control. Following preparation, 25 μl of the liposome drug solution was spread onto a 25 μl spot OP50 lawn on NGM plates and worms were then picked onto the plates.
The percentage of animals with this defective movement were scored post stress.

[4] = system: Zebra fish (Danio rerio) liver; test: Zebra fish liver oxidative stress, PI/DAPI staining; format: cell-based; details: 2500 μM EGTA during stress, 7 min in 1 mM H2O2
Description: Freshly culled zebrafish (Danio rerio) was dissected to quickly remove the liver which was then placed in PBS buffer and immediately stressed with 1 mM hydrogen peroxide for 7 min in with or without 2500 μM EGTA. The liver was then washed in PBS to stop the stress and stained with PI as well as DAPI to visualise all cell nuclei (including intact cell nuclei). The liver was then placed on a microscope slide under a coverslip and imaged.
Moving to more complex animals, the intact liver from freshly culled and dissected zebrafish (Danio rerio) was placed in PBS buffer and immediately stressed with the toxin hydrogen peroxide with or without EGTA. The liver was then washed in PBS and stained with PI as well as DAPI to visualise all cell nuclei (including intact cell nuclei). The liver was then placed on a microscope slide under a coverslip and imaged, and the percentage of PI-stained cells scored (relative to all cells seen in the image, i.e., DAPI stained).

[5] = system: HEK293 suspension culture; test: HEK293 suspension culture oxidative stress, PI/DAPI staining; format: cell-based, human; details: 2500 μM EGTA 2 hrs prior and during stress, 20 sec 1M H2O2
Description: HEK293 cells were detached using trypsin, washed and placed in cell culture medium. Cells were pre-treated for 2 hrs before and during stress with or without (control) EGTA 2500 μM. Cells were stressed by placing them in a 1M hydrogen peroxide solution (in cell culture medium) for 20 sec. Cells were then washed in cell culture medium and stained with PI as well as DAPI to visualise all cell nuclei (including intact cell nuclei), and placed on a microscope slide under a coverslip and imaged.
For HEK293 suspension culture, cells were treated with a high dosage of EGTA 2 hrs prior to stress as well as during the stress. Stress was exposure to 1M hydrogen peroxide alongside untreated controls. Cells were then stained with DAPI and PI and Normarski and epifluoresence imaging was performed.

O=C(O)CN(CCOCCOCCN(CC(=O)O)CC(=O)O)CC(=O)O [EGTA, ethylene glycol-bis(β-aminoethyl ether)-N,N,N′,N′-tetraacetic acid]
dosage needed to suppress necrosis ([1]; Hepg2s spheroids, day 7): 2500 µM
toxicity at earlier time points ([1]; time points earlier than day 7): some mild, but not statistically significant, toxicity
C. elegans death / survival following stress [2]: death is prevented
movement defects post stress [3]: reduced movement defects
% of necrotic cells (PI stain) relative to all cells (DAPI stain) [4]: necrosis cell death is prevented; also recorded: reduction in the percentage of necrotic (PI stained) cells
% of necrotic cells (PI stain) relative to all cells (DAPI stain) [5]: necrosis cell death is prevented; also recorded: significantly reduced
